# According to ChEMBL document CHEMBL1128619, “Chemoenzymatic synthesis of enantiomers of a new retinoid to investigate the role of chirality in the biological response” (Bioorg Med Chem Lett, 1995):
# Assays:
# [1] = Half life in rat plasma was determined; type: ADME, organism-based
# [2] = tested on: F9; assay: Cellular activity on the differentiation was quantified by measure of plasminogen activator in mouse embryonal teratocarcinoma F9 cells; type: functional, cell-based
# [3] = tested on: F9; assay: Cellular activity on the differentiation was quantified by measure of plasminogen activator in mouse embryonal teratocarcinoma F9 cells; NA means not active; type: functional, cell-based
SMILES,half-life [1] [h],AC50 [2] [µM],AC50 [3]
CC1(C)CCC(C)(C)c2cc(COC(=O)c3ccc(C(=O)O)cc3)ccc21,2.3,0.14,–
C[C@@H](OC(=O)c1ccc(C(=O)O)cc1)c1ccc2c(c1)C(C)(C)CCC2(C)C,6,0.3,–
CC(OC(=O)c1ccc(C(=O)O)cc1)c1ccc2c(c1)C(C)(C)CCC2(C)C (stereo not drawn),> 6,0.35,–
C[C@H](OC(=O)c1ccc(C(=O)O)cc1)c1ccc2c(c1)C(C)(C)CCC2(C)C,> 24,–,Not Active
